Here are results for one molecule from publication PMC7782499, “Progerinin, an optimized progerin-lamin A binding inhibitor, ameliorates premature senescence phenotypes of Hutchinson-Gilford progeria syndrome” (Communications Biology, 2021).

Several values for one entry are separate records, joined by “and”; a condition that tells them apart may be missing. Equal values may be shown once.

The test has as its target T1, progerin (Mus musculus, UniProt P48678, DEL608-657).
T1 construct: Lamin A/C and progerin amounts in tissue samples including lung, liver, and kidney; from tissue; host or cells: lung, liver and kidney of Lmna G609G/+ mice
T1 sequence (P48678 with tags, fused parts or gaps DEL608-657): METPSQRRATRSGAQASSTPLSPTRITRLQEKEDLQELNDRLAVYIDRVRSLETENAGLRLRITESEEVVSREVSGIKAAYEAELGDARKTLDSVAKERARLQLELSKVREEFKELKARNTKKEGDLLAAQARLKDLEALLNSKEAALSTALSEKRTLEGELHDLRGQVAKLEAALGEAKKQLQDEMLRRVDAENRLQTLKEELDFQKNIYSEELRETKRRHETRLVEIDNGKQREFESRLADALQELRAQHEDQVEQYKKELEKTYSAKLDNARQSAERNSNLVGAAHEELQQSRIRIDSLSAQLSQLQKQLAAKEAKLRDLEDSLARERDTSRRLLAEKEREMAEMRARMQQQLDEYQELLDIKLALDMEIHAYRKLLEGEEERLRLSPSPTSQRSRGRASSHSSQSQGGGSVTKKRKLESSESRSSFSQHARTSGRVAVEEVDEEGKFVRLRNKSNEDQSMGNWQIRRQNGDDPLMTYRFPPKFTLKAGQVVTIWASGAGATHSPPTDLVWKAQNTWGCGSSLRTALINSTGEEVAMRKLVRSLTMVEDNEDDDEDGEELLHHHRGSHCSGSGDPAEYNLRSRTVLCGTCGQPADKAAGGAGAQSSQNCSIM
The experiment in a line: Western blot of progerin and H3K9me3 in tissue samples (lung, liver, kidney). Conditions: for H3K9me3 intensity / Progerin intensity: D011-treated LmnaG609G/+ mice. The test is classed as in vivo. The source says:
Fig. 4 Oral administration of SLC-D011 suppresses premature aging features. A Gross morphology of SLC-D011-treated (D011) mice at 8 weeks old. Body size of treated mouse was apparently larger than that of the untreated control (Con) mouse. B Oral administration of SLC-D011 increases body weights of Lmna^G609G/G609G mice. Compared with untreated control group, body weight of treated mouse was increased by ~35%, *p < 0.05. C Oral administration of SLC-D011 extends the life span of Lmna^G609G/G609G mouse. SLC-D011 in monoolein-based solution was treated by oral gavage (50 mg/kg, daily) from 5 weeks old. […] E Grip test of Lmna^G609G/+ mice at 41-week-old was performed after administration of SLC-D011 for 6 weeks. The test was repeated 10 times for each mouse (n > 4), **p < 0.001. Data are presented as mean ± SD. F Electrocardiographic analysis of Lmna^G609G/+ mice (untreated: n = 4; SLC-D011: n = 4) and Lmna^+/+ mice (n = 3) after treatment with SLC-D011 for 6 weeks (unpaired t test). Heart rate is shown as beats per minute (bpm). G Dental abnormalities in Lmna^G609G/+ mice (untreated: n = 4; SLC-D011: n = 5) and Lmna^+/+ mice (n = 4). […] Lower incisors of Lmna^G609G transgenic mice grow toward the palate because of malocclusion. Oral administration of SLC-D011 for 6 weeks alleviates dental abnormalities. H Anti-aging effects of single treatment of SLC-D011 or lonafarnib were measured in HGPS patients-derived cells (AG11513, AG03199, AG11498, and AG03198, Coriell Cell Repositories). Single treatment of SLC-D011, compared to lonafarnib, reduced the expression of progerin but induced the expression of H3K9me3 and cyclin B1 in HGPS cells more effectively. HGPS patients-derived cells were treated with SLC-D011 (500 nM) or lonafarnib (500 nM) for 3 days. I Scheme of interaction between lamin A and progerin. SLC-D011 interrupts the interaction between lamin A and progerin through direct binding to the C-terminal region of progerin. “Con” and “untreated” mean vehicle (monoolein-based solution)-treated mouse group or vehicle (DMSO)-treated cells. TEXT PRINTED IN THE PICTURE: (C) D011: Kaplan-Meier survival curve in Lmna^G609G/G609G: Ave=25.2; Kaplan-Meier survival curve in Lmna^G609G/G609G: Max=26 DOUBTS OF THE COPYIST ABOUT THIS PICTURE: Panel C: Ave=25.2 / Max=26 are assigned to D011 only because they are printed beside the solid curve. No unit is printed with them; the x axis reads Age (weeks). / Panel C: Ave=16.8 / Max=18 are printed beside the dashed curve of the control (Con). They are left out because Con is not a substance.
Lamin A/C and progerin amounts in tissue samples including lung, liver, and kidney analysis of two Lmna^+/+, four untreated Lmna^G609G/+, and four D011-treated Lmna^G609G/+ mice were evaluated by western blotting. Proteins were extracted with RIPA lysis buffer supplemented with protease inhibitors. Tissues were sonicated and centrifuged at 15,000 rpm for 15 min at 4 °C. Protein concentration was determined by Coomassie-blue staining. Cellular lysates in SDS-containing sample buffer were inactivated by heating at 98 °C for 7 min. Proteins were loaded onto 8% SDS-PAGE gels and transferred to PVDF membranes. These membranes were blocked with 3% skimmed milk in TBS-T buffer for 1 h and incubated with primary antibodies including mouse monoclonal anti-progerin (1:100; sc-81611; Santa Cruz Biotechnology), mouse monoclonal anti-lamin A/C (1:500; MANLAC1; Developmental Studies Hybridoma Bank), and rabbit polyclonal anti-H3K9me3 (1;2000; Ab8898; Abcam) at 4°C overnight. Blots were then incubated with 1:10,000 goat anti-mouse (Pierce, Thermo Fisher Scientific) or 1:10,000 goat anti-rabbit (Pierce, Thermo Fisher Scientific) IgG (HRP conjugated) in 1% skimmed milk and washed with TBS-T buffer. Bands were developed using and Intron ECL detection system and quantified using Image J (National Institute of Health, NIH).
Fig. S10. […]
(Immunoblotting shows a protein as a band on a membrane.)

Setting [1] is: Lmna G609G/+ mice, oral 50 mg/kg daily for 8 weeks.

As for `CC1(C)Oc2cc3oc(=O)ccc3cc2C[C@@H]1OC/C=C/c1ccccc1` [SLC-D011], the H3K9me3 intensity by setting is: (Kidney, Ave) 6.21 AU and 9.731 AU; (Kidney, individual replicate) 7.144 AU and 5.202 AU and 6.284 AU and 10.9311 AU and 8.4105 AU and 9.851 AU; (Liver, Ave) 4.595 AU and 7.491 AU; (Liver, individual replicate) 4.833 AU and 4.0316 AU and 4.921 AU and 8.228 AU and 7.116 AU and 7.128 AU; (Lung, individual replicate) 2.3231 AU and 2.511 AU and 2.358 AU and 5.884 AU and 5.376 AU and 5.841 AU. Besides, the Progerin intensity reads like this: (Kidney, Ave) 4.42 AU and 7.581 AU; (Kidney, individual replicate) 5.843 AU and 4.429 AU and 2.988 AU and 9.2 AU and 12.7266 AU and 0.8173 AU; (Liver, individual replicate) 1.2695 AU and 1.954 AU and 0.8023 AU and 0.5773 AU and 0.1521 AU and 0.4975 AU; (Lung, Ave) 1.397 AU and 0.9832 AU; (Lung, individual replicate) 2.376 AU and 1.606 AU and 0.2082 AU and 2.142 AU and 0.6098 AU and 0.1984 AU. Under setting [1], the “H3K9me3 level in tissues” value was “increase of H3K9me3”. Besides, the “Progerin level in tissues” value under setting [1] is listed as “Obvious reduction of progerin”.
